Measured values published in EP0873137B1, “COMPOSITIONS INCLUDING CALCIUM INFLUX BLOCKERS FOR INHIBITING CELL GROWTH” (The Wellesley Hospital Foundation, priority 1996, dated 1997).

Assays:
[1] = system: Bone marrow derived mast cells (BMMC); assay: Cell death assay (Trypan blue exclusion) in BMMC; format: cell-based; settings: for cell death: 24 hours
Procedure: Cytotoxicity assays were performed as described in Materials and Methods. In Figures 1A to 1C, BMMCs were incubated with either SLF (500ng/ml in all cases) (circles) or IL-3 (25% WEHI-3 conditioned medium in all cases) (squares) with the indicated amounts of ketotifen (Figure 1A), econazole (Figure 1B) or Ni^2+ (Figure 1C). In Figure 1D, BMMCs were incubated with IL-3, and the indicated amounts of SLF. Plotted circles also included 2.5mM Ni^2+ and plotted squares included no Ni^2+. In Figure 1E, BMMCs were coated with IgE anti-DNP monoclonal SPE-7, then incubated with IL-3 plus the indicated amounts of DNP-HSA (Ag), with 5µM econazole (circles) or without econazole (squares). In Figure 1F, BMMCs were incubated with IL-3 plus the indicated amounts of Substance P, with 5µM econazole (circles) or without econazole (squares). In all cases, the proportion of dead cells was determined after 24 hours in culture by counting cells that could or could not exclude Trypan blue. Error bars represent the standard error determined from triplicate measurements.
(§1) Cells. Bone marrow derived mast cells (BMMC) were generated as described previously (Berger et al., 1994). They were cultured in OPTI-MEM (Gibco, Burlington, ON) supplemented with 10% heat-inactivated FBS and 2% WEHI-3 supernatant as a source of IL-3. 32D-kit cells (gift from Dr. Mark Minden, Ontario Cancer Institute) are an IL-3-dependent myelomonocytic cell line expressing c-kit (Hu et al., 1995). 32D-kit cells were grown in RPMI (Gibco) supplemented with 10% heat-inactivated FBS, 2% WEHI-3 supematant, and 1 mg/ml G418 (Gibco). The p815 cell line is a murine mastocytoma cell line. P815 cells were grown in RPMI supplemented with 10% heat-inactivated FBS. Bcl-2 gp+e NIH 3T3 packaging cells were grown in Dulbecco's modified Eagle's medium (DMEM - Gibco) and supplemented with 10% FBS and 2 µg/ml puromycin (Sigma, St. Louis, Mo). All cell cultures also contained 55µM β-mercaptoethanol and antibiotics (both Sigma). SK-BR3, MDA-MB231 and MCF-7 cells were obtained from ATCC. SK-BR3 and MDA-MB231 cells were cultured in RPMI medium supplemented with 10% heat inactivated fetal bovine serum. MCF-7 cells were cultured in DMEM medium supplemented with 10% heat inactivated fetal bovine serum and 10 µg/ml human insulin (Sigma).
(§2) Cell death assays. 2.5 X 10^4 BMMCs, 32D-kit or P815 cells were placed in 96-well flat bottom plates in a volume of 0.1 ml RPMI containing 0.5% FBS. Cells were supplemented with either SLF, Substance P or IL3 plus Ca^2+ channel blocker. In the case of adding IgE, cells were incubated with 10 µg/ml SPE-7 for 45 minutes at 4°C followed by 3 washes with RPMI, 0.5% FBS before plating in 96 well plates and adding 100 ng/ml DNP-HSA. The proportion of dead cells was determined after 18 or 24 hours in culture by counting cells that could or could not exclude Trypan blue.

[2] = system: BMMC; assay: Analysis of DNA content (propidium iodide, flow cytometry) in BMMC; format: cell-based; settings: 24 hours
Procedure: Analysis of DNA content. 1.25 X 10^6 cells were incubated for 18 or 24 hours as described above. Cells were spun down and resuspended in Vindelov's reagent: 3.4mM Tris - pH 8, 75 µM Propidium Iodide (from Sigma), 0.1% NP-40, 700 u/l RNAse (Sigma) and 10 mM NaCl. Cells were then analysed by flow cytometry.

[3] = system: NS1/Ag4 myeloma cells; settings: at 1µg/ml; cited from earlier work
[4] = system: 32D-kit-Bcl-2 cells; assay: Cell death assay (Trypan blue exclusion) in Bcl-2 over-expressing 32D-kit cells; format: cell-based; settings: SLF plus 2.5, 5 or 10µM econazole; 18 hours; Figure 7B
Procedure: Figures 6A and 6B show the effect of ionomycin on apoptosis induced by SLF and Ca^2+ influx blacker. In Figure 6A, 32D-kit cells were incubated for 18 hours with 5µM econazole and the indicated amounts of ionomycin in the presence of either SLF (circles) or IL-3 (squares). In Figure 6B, 32D-kit-Bcl-2 cells were incubated for 18 hours with 5µM econazole and the indicated amounts of ionomycin in the presence of either SLF (circles) or IL-3 (squares). The proportion of dead cells was determined by Trypan Blue exclusion.
In additional cultures, IL-3 alone or no factor was added and cell viability was similarly tested. The effect on cell viability of adding 25 or 250 µM YVAD-CHO was also evaluated in separate cultures in which no additional factors were added.
Generation of Bcl-2 over-expressing 32D-kit cells. gp + e bcl-2 retroviral producer cells were a gift from Dr. Y. Ben-David (Toronto) and contain an LXSN-based retroviral vector expressing genes for both puromycin resistance and murine bcl-2. For infection, a confluent layer of gp + e packaging cells were co-cultured with 32D-kit cells for 24 hours. Non-adherent 32D-kit cells were then removed, cultured for 48 hours and then selected for bcl-2 over-expressing cells in the presence of 2µg/ml puromycin.
as §2

[5] = system: MDA-MB-231 cells; assay: Cell death in autocrine stimulated MDA-MB-231 breast cancer cells; format: cell-based, human; settings: 20µM econazole; Figure 9B
Procedure: Bar 1: control; Bar 2: 20µM econazole; Bar 3: 20µM econazole and 10µM YVAD-CHO (ICE inhibitor); Bar 4: 20µM econazole and 100 µM YVAD-CHO; Bar 5: 20µM econazole and 0.1 nM ionomycin (calcium ionophore); Bar 6: 20µM econazole and 10 nM ionomycin; Bar 7: 20µM econazole and 1 µM ionomycin; Bar 8: 20µM econazole and 10 µM oleic acid (PLC activation inhibitor); and Bar 9: 20µM econazole and 100 µM oleic acid.
as §1
The MDA-MB-231 cell line is a highly anaplastic carcinoma of the breast. it too is tumorigenic in nude mice but expresses only low levels of erbB2. However it is FGF^R positive and is stimulated in an autocrine fashion by bFGF (el Yazidi et al., 1995). Experiments were carried out to determine the susceptibility of MDA-MB-231 cells to a Ca^2+ influx blocker and the influence of oleic acid, ionomycin, and YVAD-CHO on induction of cell death by the blocker. The results are summarized together in Figure 9B.

[6] = system: SK-BR3 cells; assay: Cell death (Trypan blue exclusion) in SK-BR3 breast cancer cells; format: cell-based, human; settings: with or without 10ng/ml EGF; 18 hours; Figure 9A
Procedure: as §1

[7] = system: MCF-7 cells; assay: Cell death (Trypan blue exclusion) in MCF-7 cells; format: cell-based, human; settings: with versus without 10ng/ml EGF; 18 hours; Figure 10
Procedure: 2.5 X 10^4 MCF-7 cells were incubated in the wells of a 96-well plate in 0.1ml DMEM plus 0.5% FBS with (circles) or without (squares) 10ng/ml EGF and with the concentrations of econazole indicated for 18 hours. The proportion of dead cells was evaluated by Trypan Blue exclusion after 18 hours in culture.
as §1, with “MCF-7 cells were cultured in DMEM medium supplemented with 10% heat inactivated fetal bovine serum and 10 µg/ml human insulin (Sigma).” left out

Which cell death ([1]; co-incubated with SLF (500ng/ml), Figures 1A-C) does the source give for Clc1ccc(COC(Cn2ccnc2)c2ccc(Cl)cc2Cl)cc1 (centres unmarked) [econazole] here?
The cell death was “converted to a death signal”.

And the cell viability ([1]; econazole alone, without antigenic stimulation)?
Its cell viability is “no effect on cell viability”.

What about the cell death ([1]; stimulated with IgE plus antigen (DNP-HSA), with IL-3, 5µM econazole in Figure 1E) of the same compound?
Its cell death is “cell death is induced”.

What about the cell death ([1]; stimulated with Substance P, IL-3, 5µM econazole) of the same compound?
The cell death was “cell death is also induced”.

And the “Sub G1 Content (%) 8µM econazole” value ([2]; 8µM econazole plus IL-3 (25% WEHI conditioned media))?
Its value is 20.4%.

And the “Sub G1 Content (%) 8µM econazole” value ([2]; 8µM econazole plus SLF (500ng/m.))?
The value was 66.8%.

And the “cell viability and cell numbers” value [3]?
Its value is “reduce cell viability and cell numbers”.

What about the “protection by Bcl-2 overexpression from induction of apoptosis” value [4] of the same compound?
Its value is “fails to protect”.

What about the apoptosis [5] of the same compound?
The apoptosis was “undergo apoptosis”.

And the cell death [6]?
The cell death was “equivalent levels of death”.

What about the “sensitivity to cell death” value [7] of the same compound?
Its value is “more sensitive”.
